Experimental data from ChEMBL document CHEMBL1125191, “Synthesis, stereochemistry, and biological activity of the 1-(1-phenyl-2-methylcyclohexyl)piperidines and the 1-(1-phenyl-4-methylcyclohexyl)piperidines. Absolute configuration of the potent trans-(-)-1-(1-phenyl-2-methylcyclohexyl)piperidine” (J Med Chem, 1991).

How the values were obtained:
Mus musculus [1] = test: Effective dose after subcutaneous administration using rotarod test in mice; type: functional
[2] = target: T1, Glutamate receptor ionotropic, NMDA 1 (Rattus norvegicus, UniProt P35439); test: Binding affinity by displacement of [3H]TCP from PCP N-methyl-D-aspartate glutamate receptor of tissue homogenate preparation of rat brain without cerebellum (in vitro); type: tissue-based
Mus musculus [3] = test: ED50 value by rotarod test on mice at different dosage levels upon subcutaneous administration; type: functional; details: sc
[4] = target: T1, Glutamate receptor ionotropic, NMDA 1; test: Binding affinity by displacement of [3H]TCP from PCP N-methyl-D-aspartate glutamate receptor of tissue homogenate preparation of rat brain without cerebellum; type: tissue-based

Row | Compound | ED50 (Mus musculus [1]) [mg/kg] | Ki [2] [nM] | ED50 (Mus musculus [3]) [mg/kg] | Ki [4] [µM] | ED50 (Mus musculus [1]; Mus musculus, sc, read-out: ED50) [mg/kg]
1 | CC1CCC(c2ccccc2)(N2CCCCC2)CC1 (stereo in doubt; 17) | >150 | 617 |  |  | 
2 | N=C(c1ccccc1)C1(N2CCCCC2)CCCCC1 |  |  | > 100 | 31 | 
3 | CC1CCCCC1(c1ccccc1)N1CCCCC1 (trans isomer) | 3.3 | 25 |  |  | 
4 | CC1CCCCC1(c1ccccc1)N1CCCCC1 (stereo in doubt; (+)-3) | >100 | 2940 |  |  | 
5 | CC1CCCCC1(c1ccccc1)N1CCCCC1 (stereo in doubt; (-)-3) |  | 2180 |  |  | 
6 | CC1CCCCC1(c1ccccc1)N1CCCCC1 (stereo in doubt; (-)-2) | 1.9 | 11 |  |  | 
7 | CC1CCCCC1(C(=N)c1ccccc1)N1CCCCC1 (cis isomer) |  |  | > 100 | 4.7 | 
8 | CC1CCC(c2ccccc2)(N2CCCCC2)CC1 (stereo in doubt; 18) | 5.5 | 166 |  |  | 
9 | CC1CCCCC1(c1ccccc1)N1CCCCC1 (stereo in doubt; (+)-2) | 7.5 | 100 |  |  | 
10 | CC1CCCCC1(C(=N)c1ccccc1)N1CCCCC1 (trans isomer) |  |  |  | 23 | 
11 | CC1CCCCC1(c1ccccc1)N1CCCCC1 (stereo in doubt; 3) | >150 | 7400 |  |  | 
12 | c1ccc(C2(N3CCCCC3)CCCCC2)cc1 [PHENCYCLIDINE] |  | 53 |  |  | 4
